Laboratory results published in ChEMBL document CHEMBL5338814, “Discovery of Small-Molecule Degraders for Alpha-Synuclein Aggregates” (J Med Chem, 2023).
The source made the active and inactive calls. No cut-off for these calls is given here.

Key:
HEK-293T [1] = assay: Activation of autophagy-lysosome pathway in HEK293T cells seeded with recombinant alpha-synuclein preformed fibrils harboring adenovirus-mCherry-GFP-LC3B assessed as increase in LC3B punctae density at 10 uM treated for 6 hrs by DAPI staining based confocal laser scanning microscopic analysis; format: functional, cell-based; details: Homo sapiens
Caenorhabditis elegans [2] = assay: In vivo PROTAC activity at CRBN/Alpha-synuclein overexpressed in Caenorhabditis elegans NL5901 co-expressing YFP fusion protein assessed as induction of alpha-synuclein aggregate degradation incubated for 48 hrs by dot blot analysis; format: functional, organism-based; details: dose 20-80 µM
HEK-293T [3] = assay: Activation of autophagy-lysosome pathway in HEK293T cells seeded with recombinant alpha-synuclein preformed fibrils assessed as decrease in p62 level at 10 uM incubated for 6 hrs by immunoblot analysis; format: functional, cell-based; details: Homo sapiens
HEK-293T [4] = assay: Activation of autophagy-lysosome pathway in HEK293T cells seeded with recombinant alpha-synuclein preformed fibrils harboring adenovirus-mCherry-GFP-LC3B assessed as increase in GFP(-) punctae ratio at 10 uM treated for 6 hrs by DAPI staining based confocal laser scanning microscopic analysis; format: functional, cell-based; details: Homo sapiens
[5] = 1-Octanol-water partition coefficient, logP of the compound incubated for 24 hrs by HPLC analysis; format: physicochemical
Caenorhabditis elegans [6] = assay: In vivo PROTAC activity at CRBN/Alpha-synuclein overexpressed in Caenorhabditis elegans NL5901 co-expressing YFP fusion protein assessed as reduction in alpha-synuclein-YFP level at 20 to 80 uM incubated for 48 hrs by confocal laser scanning microscopic analysis; format: functional, organism-based; details: dose 20-80 µM
HEK-293T [7] = assay: Effect on alpha-synuclein total level in HEK293T cells upto 40 uM measured after 48 hrs by immunoblot analysis; format: functional, cell-based; details: Homo sapiens
[8] = Drug uptake in HEK293T cell membrane at 10 uM measured at 5 to 360 min by confocal laser scanning microscopic analysis; format: ADME, cell membranes; details: human, hek-293t, time 5-360 min
HEK-293T [9] = assay: Activation of autophagy-lysosome pathway in HEK293T cells seeded with recombinant alpha-synuclein preformed fibrils harboring adenovirus-mCherry-GFP-LC3B assessed as increase in LC3B punctae number at 10 uM treated for 6 hrs by DAPI staining based confocal laser scanning microscopic analysis; format: functional, cell-based; details: Homo sapiens
Caenorhabditis elegans [10] = assay: In vivo PROTAC activity at CRBN/Alpha-synuclein overexpressed in Caenorhabditis elegans NL5901 co-expressing YFP fusion protein assessed as induction of alpha-synuclein aggregate degradation incubated for 48 hrs by immunoblot analysis; format: functional, organism-based; details: dose 20-80 µM
HEK-293T [11] = assay: Activation of autophagy-lysosome pathway in HEK293T cells seeded with recombinant alpha-synuclein preformed fibrils assessed as increase in lysosome generation at 10 uM incubated for 6 hrs by LyTR staining based confocal laser scanning microscopic analysis; format: functional, cell-based; details: Homo sapiens
Caenorhabditis elegans [12] = assay: In vivo PROTAC activity at CRBN/Alpha-synuclein overexpressed in Caenorhabditis elegans NL5901 co-expressing YFP fusion protein assessed as reduction in alpha-synuclein-YFP MFI at 20 to 80 uM incubated for 48 hrs by confocal laser scanning microscopic analysis; format: functional, organism-based; details: dose 20-80 µM
SH-SY5Y [13] = assay: Neuroprotective activity against alpha-synuclein aggregate-induced cell injury in human SH-SY5Y cells over-expressing alpha-synuclein preformed fibrils assessed as decrease in LDH release at 10 uM by LDH assay; format: functional, cell-based
SH-SY5Y [14] = assay: Neuroprotective activity against alpha-synuclein aggregate-induced cell death in human SH-SY5Y cells over-expressing alpha-synuclein preformed fibrils assessed as decrease in cell death at 10 uM by CCK8 assay; format: functional, cell-based
HEK-293T [15] = assay: Downregulation of alpha-synuclein in HEK293T cells seeded with recombinant alpha-synuclein preformed fibrils at 10 uM incubated for 24 hrs by label free quantification based proteomics analysis; format: functional, cell-based; details: Homo sapiens
HEK-293T [16] = assay: Activation of autophagy-lysosome pathway in HEK293T cells seeded with recombinant alpha-synuclein preformed fibrils assessed as increase in LC3B-II/I ratio at 10 uM incubated for 6 hrs by immunoblot analysis; format: functional, cell-based; details: Homo sapiens
HEK-293T [17] = assay: Effect on alpha-synuclein total level in HEK293T cells seeded with recombinant alpha-synuclein preformed fibrils upto 40 uM measured after 48 hrs by immunoblot analysis; format: functional, cell-based; details: Homo sapiens
HEK-293T [18] = assay: Activation of autophagy-lysosome pathway in HEK293T cells seeded with recombinant alpha-synuclein preformed fibrils assessed as increase in LAMP1 expression at 10 uM incubated for 6 hrs by immunoblot analysis; format: functional, cell-based; details: Homo sapiens
[19] = molecular target: von Hippel-Lindau disease tumor suppressor/Alpha-synuclein (Homo sapiens) (UniProt P37840+P40337); assay: PROTAC activity at VHL/recombinant alpha-synuclein preformed fibrils seeded in HEK293T cells assessed as decrease in alpha-synuclein aggregates upto 40 uM measured after 48 hrs by immunoblot analysis; format: cell-based
[20] = molecular target: T1, Protein cereblon/Alpha-synuclein (Homo sapiens) (UniProt P37840+Q96SW2); assay: PROTAC activity at CRBN/recombinant alpha-synuclein preformed fibrils seeded in HEK293T cells assessed as decrease in alpha-synuclein aggregates at 5 to 20 uM measured after 48 hrs by immunoblot analysis; format: cell-based; details: dose 5-20 µM
[21] = molecular target: Baculoviral IAP repeat-containing protein 2/Alpha-synuclein (Homo sapiens) (UniProt Q13490+P37840); assay: PROTAC activity at cIAP1/recombinant alpha-synuclein preformed fibrils seeded in HEK293T cells assessed as decrease in alpha-synuclein aggregates upto 40 uM measured after 48 hrs by immunoblot analysis; format: cell-based
[22] = molecular target: T1, Protein cereblon/Alpha-synuclein (Homo sapiens); assay: PROTAC activity at CRBN/recombinant alpha-synuclein preformed fibrils seeded in HEK293T cells assessed as decrease in alpha-synuclein aggregates upto 40 uM measured after 48 hrs by immunoblot analysis; format: cell-based

With `O=C(CNc1cccc(-c2cc(-c3ccc4c(c3)OCO4)n[nH]2)c1)NCCOCCOCCOCCNc1cccc2c1C(=O)N(C1CCC(=O)NC1=O)C2=O` (stereo not given) the Activity (HEK-293T [1]) was “Active”, the Activity (Caenorhabditis elegans [2]) was “Dose-Dependent Effect” and the Activity (HEK-293T [3]) was “Active”. The Activity (HEK-293T [4]) was “Active”, the logP at 24 h [5] was 2.04 and the Activity (Caenorhabditis elegans [6]) was “Active”. The Activity (HEK-293T [7]) was “inactive”, the Drug uptake [8] was “Active” and the Activity (HEK-293T [9]) was “Active”. For the same compound, the Activity (Caenorhabditis elegans [10]) was “Dose-Dependent Effect”, the Activity (HEK-293T [11]) was “Active” and the Activity (Caenorhabditis elegans [12]) was “Active”. The Activity (SH-SY5Y [13]) was “Active”, the Activity (SH-SY5Y [14]) was “Active” and the Activity (HEK-293T [15]) was “Active”. The Activity (HEK-293T [16]) was “Active”, the Activity (HEK-293T [17]) was “inactive” and the Activity (HEK-293T [18]) was “Active”.

In the case of `Cc1ncsc1-c1ccc([C@H](C)NC(=O)[C@@H]2C[C@@H](O)CN2C(=O)[C@@H](NC(=O)CCOCCOCCOCCNc2cccc(-c3cc(-c4ccc5c(c4)OCO5)n[nH]3)c2)C(C)(C)C)cc1`, the Activity [19] is reported as “Active”.

With `Nc1cccc(-c2cc(-c3ccc4c(c3)OCO4)n[nH]2)c1` the Activity [20] was “inactive”.

With `CC(C)C[C@H](NC(=O)[C@@H](O)[C@H](N)Cc1ccccc1)C(=O)NCCOCCOCCOCCNc1cccc(-c2cc(-c3ccc4c(c3)OCO4)n[nH]2)c1` the Activity [21] was “Active”.

With `CN1C(=O)CCC(N2C(=O)c3cccc(NCCOCCOCCOCCNC(=O)CNc4cccc(-c5cc(-c6ccc7c(c6)OCO7)n[nH]5)c4)c3C2=O)C1=O` (stereo not given) the Activity [20] was “inactive”.

For `Cc1ncsc1-c1ccc([C@H](C)NC(=O)[C@@H]2C[C@@H](O)CN2C(=O)[C@@H](NC(=O)CCOCCOCCNc2cccc(-c3cc(-c4ccc5c(c4)OCO5)n[nH]3)c2)C(C)(C)C)cc1`, the Activity [19] was “Active”.

In the case of `O=C(CNc1cccc(-c2cc(-c3ccc4c(c3)OCO4)n[nH]2)c1)NCCOCCOCCNc1cccc2c1C(=O)N(C1CCC(=O)NC1=O)C2=O` (stereo not given), the Activity [22] is reported as “Active”.

In the case of `CC(C)C[C@H](NC(=O)[C@@H](O)[C@H](N)Cc1ccccc1)C(=O)NCCOCCOCCNc1cccc(-c2cc(-c3ccc4c(c3)OCO4)n[nH]2)c1`, the Activity [21] is reported as “Active”.
